Results taken from patent publication US6630313B2, “Phosphatidyl serine receptors and uses thereof” (National Jewish Medical and Research Center, priority 2000, dated 2003).

How the values were obtained:
[1] = test system: Jurkat T cells transfected with the candidate PSR; experiment: Binding and phagocytosis of symmetric red cell ghosts; type: cell-based, human; settings: for binding of symmetric red cell ghosts: FIG. 5; for binding and phagocytosis of symmetric red cell ghosts: stably transfected Jurkat T cells, FIG. 5 legend
Excerpt: A human EST clone (Accession No. R24727) containing the full length gene was obtained through the IMAGE Consortium via ATCC (Manassas, Va.). The insert was subcloned into pcDNA 3.1/neo at Hind III/Not I sites (Invitrogen, Carlsbad, Calif.). M12.C3 cells were transfected in OptiMEM I medium using Lipofectamine Plus (both from GibcoBRL Life Science Technologies, Grand Island, N.Y.). Jurkat T cells were transfected in OptiMEM I medium using DMRIE C Jurkat T cells were stimulated with PHA alone (1 μg/ml) or with PMA (1.6 nM) and PHA to induce expression of the receptor. After 48 hrs, the cells were analyzed for expression of the PS receptor using mAb 217 and flow cytometry. For stable transfections, Jurkat T cells were selected in G418 (1 mg/ml). Surface expression of the receptor was induced by treatment of the stably transfected cells with 160 nM PMA in the absence of G418 for 48 hours. The candidate PSR was also inserted into pRc/RSV (PharMingen, San Diego, Calif.), or pUP (provided by Brian Schaefer), and transfected into Jurkat T cells or M12.C3 cells by electroporation.
Human red blood cells were lysed in 1:50 PBS containing 1 mM CaCl2 on ice for one hour; they were resealed at 37° C. for 30 minutes by addition of 5×PBS. Exposure of phosphatidylserine was confirmed by binding of annexin-FITC, assessed by flow cytometry.

HMDM = experiment: Uptake of apoptotic cells by HMDM; type: cell-based, human; settings: control agents
Method: Human monocytes were obtained from normal donors, and cultured in X-Vivo 10 (BioWhitaker) containing 10% human serum. The differentiated macrophages (HMDM) were used at 7 days of culture. Mouse bone-marrow derived macrophages were derived by culturing bone marrow cells in M-CSF for 5-7 days.
Macrophages, fibroblasts, or epithelial cells were preincubated with 100 μM liposomes (containing 50:50 molar ratio of PS:PC or PI:PC), 1 mM RGDS or RGES, undiluted hybridoma supernatants containing mAb 217 or mAb 284 (for HMDM) or 100 μg/ml purified mAb 217, or 100 μg/ml isotype controls for 30 minutes prior to adding apoptotic Jurkat T cells at ratio of 5:1 target:phagocyte. Apoptosis was induced in Jurkat T cell by UV irradiation as described (Fadok et al., J Clin Invest 101:890-898 (1998)). THP-1 cells were stimulatedwith PMA (160 nM) for 72 hours to induce a macrophage phenotype, the ability to adhere, and the ability to take up apoptotic cells. After 1 hr, the phagocytes were washed and fixed for light microscopic evaluation of uptake. […] Aliquots were removed and assessed for binding and phagocytosis by light microscopy as described (Fadok et al., J Immunol 148:2207-2216 (1992); Fadok et al., J Immunol 149:4029-4035 (1992); Fadok et al., J Immunol 151:4274-4285 (1993); Fadok et al., J Immunol 161:6250-6257 (1998)). […]

Row | Compound | binding of symmetric red cell ghosts [1] | binding and phagocytosis of symmetric red cell ghosts [1] | effect on uptake of apoptotic cells by HMDM (HMDM)
1 | N[C@H](COP(=O)(O)O)C(=O)O [phospho-D-serine] | not | not | 
2 | N[C@@H](COP(=O)(O)O)C(=O)O [phospho-L-serine] | inhibited | inhibited stereospecifically | 
3 | RGES |  |  | no effect
